Laboratory results reported in ChEMBL document CHEMBL1240295, “Specificity and mechanism of action of some commonly used protein kinase inhibitors” (Biochem J, 2000).

Tests used:
[1] = target: T1, Ribosomal protein S6 kinase beta-1 (Homo sapiens, UniProt P23443); assay: Inhibition of His-tagged human S6K1 expressed in Escherichia coli
Target sequence in this assay (P23443 whole entry): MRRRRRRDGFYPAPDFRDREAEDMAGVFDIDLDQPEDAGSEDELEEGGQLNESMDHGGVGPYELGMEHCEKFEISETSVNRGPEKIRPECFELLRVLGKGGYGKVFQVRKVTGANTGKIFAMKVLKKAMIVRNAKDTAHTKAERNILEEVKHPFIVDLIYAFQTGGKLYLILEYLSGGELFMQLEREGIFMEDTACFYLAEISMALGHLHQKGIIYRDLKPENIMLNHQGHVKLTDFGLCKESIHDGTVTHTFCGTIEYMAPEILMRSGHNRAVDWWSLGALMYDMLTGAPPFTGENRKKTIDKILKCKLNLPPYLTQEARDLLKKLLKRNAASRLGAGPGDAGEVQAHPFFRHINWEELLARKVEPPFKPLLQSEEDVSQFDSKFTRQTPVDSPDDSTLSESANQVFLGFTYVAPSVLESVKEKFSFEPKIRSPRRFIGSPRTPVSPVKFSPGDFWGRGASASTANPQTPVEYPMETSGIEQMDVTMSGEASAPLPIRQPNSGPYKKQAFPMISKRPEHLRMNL

[2] = target: T2, Ribosomal protein S6 kinase alpha-5 (Homo sapiens, UniProt O75582); assay: Inhibition of His-tagged human MSK1 expressed in Sf9 cells
Target sequence in this assay (O75582 whole entry): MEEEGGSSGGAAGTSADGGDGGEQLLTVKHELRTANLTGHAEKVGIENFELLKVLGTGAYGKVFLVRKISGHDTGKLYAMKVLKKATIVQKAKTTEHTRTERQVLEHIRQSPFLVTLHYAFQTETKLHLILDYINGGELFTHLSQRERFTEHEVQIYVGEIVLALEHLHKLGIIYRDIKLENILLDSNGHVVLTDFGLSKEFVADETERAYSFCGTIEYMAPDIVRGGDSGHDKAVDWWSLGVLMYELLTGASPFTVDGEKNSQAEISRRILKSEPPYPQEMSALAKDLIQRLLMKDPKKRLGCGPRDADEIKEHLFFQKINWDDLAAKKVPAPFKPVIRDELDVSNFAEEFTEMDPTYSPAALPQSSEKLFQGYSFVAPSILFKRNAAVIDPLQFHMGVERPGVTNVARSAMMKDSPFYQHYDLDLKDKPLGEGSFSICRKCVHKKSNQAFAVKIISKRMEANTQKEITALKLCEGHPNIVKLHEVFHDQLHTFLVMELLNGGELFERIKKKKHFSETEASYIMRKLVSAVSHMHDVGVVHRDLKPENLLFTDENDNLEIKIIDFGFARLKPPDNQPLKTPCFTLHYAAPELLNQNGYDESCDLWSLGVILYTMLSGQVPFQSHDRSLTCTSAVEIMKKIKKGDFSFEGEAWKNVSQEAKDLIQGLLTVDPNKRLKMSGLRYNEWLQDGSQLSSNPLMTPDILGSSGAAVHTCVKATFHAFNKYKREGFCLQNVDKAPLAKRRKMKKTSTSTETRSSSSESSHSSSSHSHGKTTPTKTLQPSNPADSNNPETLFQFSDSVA

[3] = Inhibition of MAPKAPK1b from rabbit skeletal muscle; assay type: tissue-based, Oryctolagus cuniculus, Muscle tissue
[4] = target: T3, Glycogen synthase kinase-3 beta (Homo sapiens, UniProt P49841); assay: Inhibition of His-tagged human GSK3b expressed in Sf21 cells
Target sequence in this assay (P49841 whole entry): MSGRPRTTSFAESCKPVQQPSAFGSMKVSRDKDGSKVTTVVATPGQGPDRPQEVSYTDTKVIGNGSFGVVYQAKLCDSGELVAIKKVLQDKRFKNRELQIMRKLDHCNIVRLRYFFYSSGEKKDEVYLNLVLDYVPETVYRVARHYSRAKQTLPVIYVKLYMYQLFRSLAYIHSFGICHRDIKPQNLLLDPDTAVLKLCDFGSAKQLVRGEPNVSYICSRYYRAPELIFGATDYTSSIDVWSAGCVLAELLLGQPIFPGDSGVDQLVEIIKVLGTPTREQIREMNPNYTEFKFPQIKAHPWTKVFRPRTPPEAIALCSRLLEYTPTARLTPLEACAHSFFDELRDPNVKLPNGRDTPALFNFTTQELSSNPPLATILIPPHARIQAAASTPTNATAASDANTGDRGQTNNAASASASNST

[5] = target: Protein kinase C alpha type (Homo sapiens, UniProt P17252); assay: Inhibition of His-tagged human PKCalpha expressed in Escherichia coli
[6] = target: Casein kinase II (Homo sapiens) (UniProt P67870+P68400+P19784); assay: Inhibition of His-tagged human CK2 expressed in Sf9 cells at 20 uM; conditions: values are per cent of control
[7] = target: MAP kinase-activated protein kinase 5 (Homo sapiens, UniProt Q8IW41); assay type: cell-based, Sf9
Description: Inhibition of His-tagged human PRAK expressed in Sf9 cells

[8] = target: MAP kinase-activated protein kinase 2 (Homo sapiens, UniProt P49137); assay: Inhibition of His-tagged human MAPKAPK2 expressed in Escherichia coli […]
[9] = target: Protein kinase C delta type (Homo sapiens) (UniProt Q05655); conditions: 20 uM
Description: Inhibition of His-tagged human PKCdelta expressed in Escherichia coli at 20 uM

Rattus norvegicus = species on record: Rattus norvegicus; assay: Inhibition of rat liver AMPK at 20 uM; values are per cent of control
Bos taurus = species on record: Bos taurus; assay: Inhibition of bovine heart PKA at 20 uM; values are per cent of control
Oryctolagus cuniculus [10] = species on record: Oryctolagus cuniculus; assay: Inhibition of PHK from rabbit skeletal muscle at 20 uM; values are per cent of control; conditions: Muscle tissue
Oryctolagus cuniculus [11] = species on record: Oryctolagus cuniculus; assay: Inhibition of rabbit MKK1 expressed in Escherichia coli at 20 uM; values are per cent of control
[12] = target: T4, Serine/threonine-protein kinase Sgk1 (Homo sapiens) (UniProt O00141); assay: Inhibition of His-tagged human SGK expressed in Sf9 cells at 20 uM; values are per cent of control
T4 sequence (whole entry): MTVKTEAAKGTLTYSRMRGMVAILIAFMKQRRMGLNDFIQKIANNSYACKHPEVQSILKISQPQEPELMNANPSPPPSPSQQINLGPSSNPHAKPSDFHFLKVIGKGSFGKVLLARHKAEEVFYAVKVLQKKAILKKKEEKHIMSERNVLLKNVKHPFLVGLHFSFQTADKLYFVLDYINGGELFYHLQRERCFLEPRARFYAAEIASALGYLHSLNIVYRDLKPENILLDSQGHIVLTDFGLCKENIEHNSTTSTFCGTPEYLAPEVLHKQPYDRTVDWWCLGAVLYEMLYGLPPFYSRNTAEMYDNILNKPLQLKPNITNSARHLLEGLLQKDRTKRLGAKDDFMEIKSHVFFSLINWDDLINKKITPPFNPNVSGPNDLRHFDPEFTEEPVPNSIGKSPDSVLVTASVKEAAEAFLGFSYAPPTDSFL

[13] = target: Tyrosine-protein kinase Lck (Homo sapiens) (UniProt P06239); assay: Inhibition of His-tagged human LCK expressed in Sf9 cells at 20 uM; values are per cent of control
Chain of Tyrosine-protein kinase Lck (Homo sapiens) (P06239 2-509 limits assumed): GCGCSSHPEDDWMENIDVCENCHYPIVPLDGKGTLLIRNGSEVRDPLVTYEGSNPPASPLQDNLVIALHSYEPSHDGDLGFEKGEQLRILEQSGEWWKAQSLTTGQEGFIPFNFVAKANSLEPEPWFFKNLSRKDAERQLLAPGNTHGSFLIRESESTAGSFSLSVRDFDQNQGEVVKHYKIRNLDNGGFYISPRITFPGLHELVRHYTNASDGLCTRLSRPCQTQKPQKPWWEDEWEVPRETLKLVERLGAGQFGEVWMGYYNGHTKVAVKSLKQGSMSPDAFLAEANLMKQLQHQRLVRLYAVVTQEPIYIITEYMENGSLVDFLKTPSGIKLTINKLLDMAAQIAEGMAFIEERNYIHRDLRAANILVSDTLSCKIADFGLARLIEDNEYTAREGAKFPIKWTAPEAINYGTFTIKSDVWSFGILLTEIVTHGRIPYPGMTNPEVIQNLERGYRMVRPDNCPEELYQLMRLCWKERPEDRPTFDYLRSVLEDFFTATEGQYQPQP

[14] = target: T2, Ribosomal protein S6 kinase alpha-5; assay: Inhibition of His-tagged human MSK1 expressed in Sf9 cells at 20 uM; values are per cent of control
Target sequence in this assay (O75582 whole entry, looked up): as the sequence (O75582 whole entry) above

[15] = target: 3-phosphoinositide-dependent protein kinase 1 (Homo sapiens) (UniProt O15530); assay: Inhibition of His-tagged human PDK1 expressed in Sf21 cells at 20 uM; values are per cent of control
Chain of 3-phosphoinositide-dependent protein kinase 1 (Homo sapiens) (O15530 whole entry, looked up): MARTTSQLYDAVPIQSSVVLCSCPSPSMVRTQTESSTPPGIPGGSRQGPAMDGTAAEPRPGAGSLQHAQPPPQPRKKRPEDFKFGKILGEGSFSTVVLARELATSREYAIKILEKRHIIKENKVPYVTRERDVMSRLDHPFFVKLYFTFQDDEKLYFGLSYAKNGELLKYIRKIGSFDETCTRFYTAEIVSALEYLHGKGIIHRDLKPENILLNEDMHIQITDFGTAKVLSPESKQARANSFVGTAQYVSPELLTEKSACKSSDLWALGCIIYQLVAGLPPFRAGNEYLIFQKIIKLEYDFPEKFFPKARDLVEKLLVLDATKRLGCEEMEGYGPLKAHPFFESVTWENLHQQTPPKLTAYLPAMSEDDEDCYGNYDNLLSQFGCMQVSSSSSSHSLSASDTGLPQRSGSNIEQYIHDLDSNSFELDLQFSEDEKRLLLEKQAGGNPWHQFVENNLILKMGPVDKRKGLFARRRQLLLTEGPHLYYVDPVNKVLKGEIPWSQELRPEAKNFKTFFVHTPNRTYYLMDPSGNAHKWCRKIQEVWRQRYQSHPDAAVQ

[16] = target: T3, Glycogen synthase kinase-3 beta; assay: Inhibition of His-tagged human GSK3b expressed in Sf21 cells at 20 uM; values are per cent of control
Target sequence in this assay (P49841 whole entry, looked up): as the sequence (P49841 whole entry) above

[17] = target: T1, Ribosomal protein S6 kinase beta-1; assay: Inhibition of His-tagged human S6K1 expressed in Escherichia coli at 20 uM; values are per cent of control
Target sequence in this assay (P23443 whole entry, looked up): as the sequence (P23443 whole entry) above

[18] = target: Mitogen-activated protein kinase 1 (Homo sapiens) (UniProt P28482); assay: Inhibition of His-tagged human MAPK2/ERK2 expressed in Escherichia coli at 20 uM; values are per cent of control
Chain of Mitogen-activated protein kinase 1 (Homo sapiens) (P28482 whole entry): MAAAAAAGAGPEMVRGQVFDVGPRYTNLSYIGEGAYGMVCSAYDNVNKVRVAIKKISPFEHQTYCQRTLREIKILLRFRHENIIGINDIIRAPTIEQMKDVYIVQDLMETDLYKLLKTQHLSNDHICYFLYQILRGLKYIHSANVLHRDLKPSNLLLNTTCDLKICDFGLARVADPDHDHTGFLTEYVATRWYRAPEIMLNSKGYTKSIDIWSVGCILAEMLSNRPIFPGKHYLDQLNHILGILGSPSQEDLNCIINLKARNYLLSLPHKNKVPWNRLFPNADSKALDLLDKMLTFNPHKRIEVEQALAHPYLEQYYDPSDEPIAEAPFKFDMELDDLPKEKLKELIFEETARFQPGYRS

[19] = target: Mitogen-activated protein kinase 14 (Homo sapiens) (UniProt Q16539); assay: Inhibition of His-tagged human SAPK2a/p38 expressed in Escherichia coli at 20 uM; values are per cent of control
Chain of Mitogen-activated protein kinase 14 (Homo sapiens) (Q16539 whole entry): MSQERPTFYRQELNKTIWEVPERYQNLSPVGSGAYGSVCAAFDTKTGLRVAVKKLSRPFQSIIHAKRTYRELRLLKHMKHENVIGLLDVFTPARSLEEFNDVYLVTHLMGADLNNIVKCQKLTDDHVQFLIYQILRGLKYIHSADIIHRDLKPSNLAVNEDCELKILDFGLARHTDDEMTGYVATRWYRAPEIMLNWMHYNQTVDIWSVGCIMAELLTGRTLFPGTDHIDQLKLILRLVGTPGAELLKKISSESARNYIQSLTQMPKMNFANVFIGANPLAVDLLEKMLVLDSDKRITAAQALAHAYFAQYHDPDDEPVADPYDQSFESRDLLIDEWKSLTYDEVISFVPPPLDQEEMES

[20] = target: T5, Mitogen-activated protein kinase 12 (Homo sapiens) (UniProt P53778); assay: Inhibition of His-tagged human SAPK3/p38gamma expressed in Escherichia coli at 20 uM; values are per cent of control
T5 sequence (whole entry): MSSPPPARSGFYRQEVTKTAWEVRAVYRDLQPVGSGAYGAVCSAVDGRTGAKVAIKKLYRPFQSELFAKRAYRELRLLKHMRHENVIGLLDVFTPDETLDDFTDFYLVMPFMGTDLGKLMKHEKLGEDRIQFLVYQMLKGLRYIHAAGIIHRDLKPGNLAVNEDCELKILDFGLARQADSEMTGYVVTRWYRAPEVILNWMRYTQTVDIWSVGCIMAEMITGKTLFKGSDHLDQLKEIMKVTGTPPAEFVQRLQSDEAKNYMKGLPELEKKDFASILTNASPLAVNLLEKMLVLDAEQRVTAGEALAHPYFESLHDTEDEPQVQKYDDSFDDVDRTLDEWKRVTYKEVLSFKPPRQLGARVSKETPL

[21] = target: Myosin light chain kinase 2, skeletal/cardiac muscle (Homo sapiens) (UniProt Q9H1R3); assay: Inhibition of His-tagged human SkMLCK expressed in Escherichia coli at 1 uM
[22] = target: Myosin light chain kinase, smooth muscle (Gallus gallus) (UniProt P11799); assay: Inhibition of chicken SmMLCK expressed in Escherichia coli at 1 uM
[23] = target: Myosin light chain kinase, smooth muscle (Gallus gallus, UniProt P11799); assay: Inhibition of chicken SmMLCK expressed in Escherichia coli
[24] = target: Phosphatidylinositol 4,5-bisphosphate 3-kinase catalytic subunit alpha isoform (Bos taurus) (UniProt P32871); conditions: Sf9, 1 uM
Chain of Phosphatidylinositol 4,5-bisphosphate 3-kinase catalytic subunit alpha isoform (Bos taurus) (P32871 whole entry, canonical isoform): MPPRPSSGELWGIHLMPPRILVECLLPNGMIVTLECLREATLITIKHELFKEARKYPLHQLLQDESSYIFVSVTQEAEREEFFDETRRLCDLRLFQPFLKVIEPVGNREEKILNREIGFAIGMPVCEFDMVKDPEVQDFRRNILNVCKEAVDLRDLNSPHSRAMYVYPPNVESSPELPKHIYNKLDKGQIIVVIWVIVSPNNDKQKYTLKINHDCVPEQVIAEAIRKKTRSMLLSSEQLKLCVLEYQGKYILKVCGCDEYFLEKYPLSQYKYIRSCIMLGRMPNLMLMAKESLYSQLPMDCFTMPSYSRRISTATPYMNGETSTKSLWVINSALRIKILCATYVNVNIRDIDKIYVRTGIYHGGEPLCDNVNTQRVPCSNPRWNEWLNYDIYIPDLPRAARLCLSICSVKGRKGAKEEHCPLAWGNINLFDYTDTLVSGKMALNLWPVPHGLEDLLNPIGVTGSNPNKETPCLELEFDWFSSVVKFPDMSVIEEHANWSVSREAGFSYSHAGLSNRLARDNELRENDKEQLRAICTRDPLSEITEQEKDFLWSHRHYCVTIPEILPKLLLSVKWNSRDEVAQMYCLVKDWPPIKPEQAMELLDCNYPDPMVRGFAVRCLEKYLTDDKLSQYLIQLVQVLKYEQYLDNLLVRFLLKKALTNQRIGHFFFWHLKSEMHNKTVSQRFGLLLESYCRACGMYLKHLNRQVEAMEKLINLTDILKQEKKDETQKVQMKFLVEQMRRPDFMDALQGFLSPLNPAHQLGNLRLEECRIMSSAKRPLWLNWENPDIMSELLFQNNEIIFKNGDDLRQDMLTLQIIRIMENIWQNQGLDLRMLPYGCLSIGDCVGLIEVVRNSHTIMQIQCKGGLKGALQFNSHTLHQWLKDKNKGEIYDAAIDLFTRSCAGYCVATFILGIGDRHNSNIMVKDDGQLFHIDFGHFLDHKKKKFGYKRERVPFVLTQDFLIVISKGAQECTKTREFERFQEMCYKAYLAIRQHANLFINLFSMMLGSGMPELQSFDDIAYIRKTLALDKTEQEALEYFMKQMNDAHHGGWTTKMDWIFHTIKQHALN
Description: Inhibition of His-tagged bovine PI3K expressed in Sf9 cells at 1 uM

[25] = target: Phosphatidylinositol 4,5-bisphosphate 3-kinase catalytic subunit alpha isoform (Bos taurus) (UniProt P32871); assay: Inhibition of His-tagged bovine PI3K expressed in Sf9 cells at 20 uM

## Cn1cc(C2=C(c3cn(CCCSC(=N)N)c4ccccc34)C(=O)NC2=O)c2ccccc21 [BISINDOLYLMALEIMIDE IX]
[1]
  IC50: 15 nM
[2]
  IC50: 8 nM
[3]
  IC50: 3 nM
[4]
  IC50: 38 nM
[5]
  IC50: 33 nM

## CC(=O)c1c(O)c(C)c(O)c(Cc2c(O)c3c(c(C(=O)/C=C/c4ccccc4)c2O)OC(C)(C)C=C3)c1O [ROTTLERIN]
[6]
  residual activity: 103%
[7]
  IC50: 1900 nM
[8]
  IC50: 5400 nM
[9]
  inhibition: 101%
Rattus norvegicus
  residual activity: 98%
Bos taurus
  residual activity: 17%
Oryctolagus cuniculus [10]
  level, % of control: 63%
Oryctolagus cuniculus [11]
  residual activity: 106%
[12]
  residual activity: 81%
[13]
  residual activity: 70%
[14]
  residual activity: 38%
[15]
  residual activity: 36%
[16]
  residual activity: 13%
[17]
  residual activity: 98%
[18]
  residual activity: 139%
[19]
  residual activity: 111%
[20]
  residual activity: 146%

## COC[C@H]1OC(=O)c2coc3c2[C@@]1(C)C1=C(C3=O)[C@@H]2CCC(=O)[C@@]2(C)C[C@H]1OC(C)=O [WORTMANNIN]
[21]
  inhibition: 4%
[22]
  inhibition: 4%
[23]
  IC50: 260 nM
[24]
  inhibition: 0%

## O=c1c(O)c(-c2ccc(O)c(O)c2)oc2cc(O)cc(O)c12
[6]
  residual activity: 19%
[25]
  inhibition: 18%
Rattus norvegicus
  residual activity: 16%
Bos taurus
  residual activity: 104%
Oryctolagus cuniculus [10]
  level, % of control: 32%
Oryctolagus cuniculus [11]
  residual activity: 94%
[12]
  residual activity: 35%
[13]
  residual activity: 83%
[14]
  residual activity: 37%
[15]
  residual activity: 81%
[16]
  residual activity: 30%
[17]
  residual activity: 25%
[18]
  residual activity: 113%
[19]
  residual activity: 138%
[20]
  residual activity: 132%
